Article PMC9096165 (Frontiers in Pharmacology, 2022)

Legend:
[1] = Routes and rates of excretion after single oral [14C]DF2755A; type: in vivo; settings: single oral 20 mg/kg, female SD rats
Protocol: Prior to administration and for acclimatization, animals (n = 6) were transferred to individual metabolic cages and were left therein for the duration of the study except for a short period during dosing. The metabolic cages were specifically designed for the separate collection of urine and feces. The preparation of dose formulation was performed on the day of experiment. The test item was dissolved in the appropriate volume of saline solution (NaCl, 0.9% w v^−1) to achieve the dose volume of 5 ml kg^−1. The resulting solution was then administered via a gavage fed down the esophagus to enable the formulation to be dispensed directly into the stomach.
Radioactivity was extracted from the selected feces and urine homogenate pools with appropriate solvents based on methodology developed at Quotient (Rushden) Ltd. and analyzed by quantitative radioactivity analysis (QRA).

CXCL1/KC = assay: CXCL1 ELISA in bladder tissue; type: in vivo, rat; settings: preventive: 20 mg kg^−1 + 7 mg kg^−1 twice daily for 7 days, CYP rats
Protocol: (§1) Animals pre-treated with the vehicle or a single high oral dose of DF2755A (20 mg kg^−1; 12 h before the first CYP administration) followed by repeated lower doses administration (7 mg kg^−1 twice daily for 7 days) during IC development were deeply anesthetized with isoflurane (4%) and then killed.
(§2) After killing, rat abdomen was opened through a midline incision, and bladder and proximal urethra were exposed. A catheter was inserted into the bladder through the urethra and a loose ligature was placed around the neck of the urinary bladder. Bladder was inflated with saline via the catheter to slightly distend the bladder and ligature was tightened to maintain proper distension. Bladder was then excised cutting above the insertion point of ureters, and therefore the bladder neck was not included into the bladder sample. […] One piece (B1) was placed in Eppendorf, then snap-frozen in liquid nitrogen, and stored at −80°C until quantification using ELISA assay. […] For the microscopic observations of bladder inflammation, the following parameters were analyzed: bladder edema in scores (n = 10/group), bladder hemorrhage in scores (n = 10/group), urothelial loss in scores (n = 10/group), and total inflammatory score, which was calculated by adding all the individual lesion scores (n = 10/group). […]

CXCL5 = CXCL5 ELISA in bladder tissue; type: in vivo, rat; settings: preventive: 20 mg kg^−1 + 7 mg kg^−1 twice daily for 7 days, CYP rats
Protocol: as §1, §2

TRPV1 = TRPV1 protein level in F11 cells (Western blotting); type: cell-based; settings: DF2755A 1 µM + CYP 100 nM
Source text: (§3) For these experiments, cells at 18th passage were used.
(§4) Triplicate samples were run for each gene.
Control and treated F11 cells were collected and lysed in an ice-cold RIPA buffer containing protease and phosphatase inhibitor cocktail (Sigma-Aldrich, United States). The extracted proteins were quantified using BCA assay (Thermo, United States). NuPAGE lithium dodecyl sulfate sample buffer (Cat#NP007, Thermo, United States) and NuPAGE sample reducing agent (Cat#NP0004, Thermo, United States) were added to the samples and then put in the Thermoblock (Eppendorf, United Kingdom) at 75°C for 10 min. Protein lysates (30 μg) were separated on NuPAGE bis–tris glycine gradient precast gel (Cat#NP0321PK2, Invitrogen, United States) and electroblotted on a PVDF membrane (Cat#IPVH00010, Millipore, United States) using a semi-dry system (Thermo, United States). Non-specific binding sites were blocked by blocking solution (Cat#000105, Invitrogen, United States) for 15 min at RT. […] The relative densities of the immunoreactive bands were determined and normalized with respect to actin, using Fiji software. […]

CXCL1 = CXCL1 mRNA expression in F11 cells (RT PCR); type: cell-based; settings: DF2755A 1 µM + CYP 100 nM
Source text: as §3, §4

CXCR1 = CXCR1 mRNA expression in F11 cells (RT PCR); type: cell-based; settings: DF2755A 1 µM + CYP 100 nM
Source text: as §3, §4

C[C@H](C(=O)[O-])c1ccc(Nc2nc(C(F)(F)F)cs2)cc1.[Na+] [DF2755A, sodium (2S)-2-(4-{[4-(trifluoromethyl)-1,3-thiazol-2-yl]amino}phenyl)propanoate]
overall mean recovery of radioactivity ([1]; 0 to 48 h post-dose): 97.67 % of dose | Mean recovery of radioactivity, feces ([1]; 0–168 h): 77.10 % dose | Mean recovery of radioactivity, total ([1]; 0–168 h): 102.06 % dose | Mean recovery of radioactivity, urine ([1]; 0–168 h): 24.13 % dose | bladder tissue expression of CXCL1/KC versus vehicle-treated rats (CXCL1/KC): strongly inhibited | bladder tissue expression of CXCL5 versus vehicle-treated rats (CXCL5): strongly inhibited | TRPV1 protein level in CYP-exposed cells (TRPV1): restored to control expression | CXCL1 mRNA expression in CYP-exposed cells (CXCL1): restored the mRNA expression of all the targets to control values | CXCR1 mRNA expression in CYP-exposed cells (CXCR1): restored the mRNA expression of all the targets to control values
